Results on 7 compounds are retold here after US20250206761A1, “HALOINDOLE MACROCYCLIC COMPOUNDS FOR THE TREATMENT OF CANCER” (Hoffmann-La Roche Inc., priority 2022, published 2025).

The term pIC50 denotes −log10 of the IC50, conventionally taken in molar units. Higher therefore signals a low IC50.

SMILES strings stand for the structures. pIC50: −log10 of the molar value. Like-named read-outs stand apart in the source and are kept apart here.

For data set [1] the following is noted: ester bond, EDCI/HOBt/DIEA, DCM.
The test system of data set [2] is cryopreserved suspension hepatocytes from human. The experiment in a line: Human hepatocyte stability assay. The class given is in vitro ADME. The note with it: for Clearance Category: human hepatocytes; for CL_hep (Human): human hepatocytes 1×10^6 cells/mL, 37° C. On the procedure: The hepatocyte stability assay measures the rate of disappearance of a compound from incubations with cryopreserved suspension hepatocytes from human. Positive controls, including Midazolam, Raloxifene and Dextromethorphan, are included in every experiment. Incubations consist of […] tested compound and suspension of human hepatocytes (1×10^6 cells/mL) in supplemented Williams' E Medium with 10% FBS and 0.5% Penicillin-streptomycin. The hepatocyte suspension was incubated with intermittent shaking 900 rpm at 37° C., in a 5% CO2 incubator. The reaction was stopped by adding methanol containing internal standard (2 μM Tolbutamide) at 2, 10, 20, 40, 60 and 120 minutes after compound addition, depletion of the parent compound was monitored by LC-MS/MS analysis.

In data set [3] the test system is NCI-H358 (ATCC-CRL5807) cells. Kind of data set: Cell viability assay, G12C (NCI-H358). To be noted: Homo sapiens; KRAS cell viability, NCI-H358, 72 hrs, Cell Counting Kit-8. In kind it is cell-based, human. Summed up:
(§1)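 72-hr compound treatment, 0.5% DMSO final; NCI-H358 seeded 5,000 cells/well, AGS and SW620 2,000 cells/well. Endpoint: CCK-8, 2-hr development, OD450 minus OD650.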
Background: Tetrazolium dyes change colour on reduction, which living cells bring about.

Data set [4] deals with AGS (ATCC-CRL-1739) cells. The experiment in a line: Cell viability assay, G12D (AGS). The note with it: Homo sapiens, KRAS cell viability, 72 hrs, Cell Counting Kit-8. The class given is cell-based, human. A digest of the protocol:
as §1

In the next data set the test system is SW620 (ATCC-CCL-227). Kind of data set: Cell viability assay, G12V (SW620). In kind it is cell-based, human. To be noted: Homo sapiens, SW-620; KRAS cell viability, SW620, 72 hrs, Cell Counting Kit-8. A digest of the protocol:
as §1

Data set [5] concerns the target T1, KRAS G12C-BRAF complex (Homo sapiens (Human), UniProt P01116+P62937, G12C). The experiment in a line: KRAS G12C-BRAF NanoBit assay. The class given is cell-based. To be noted: HEK293 cells, 3 hours of incubation. On the procedure: This assay is to measure the ability of tested compounds in disruption of the KRAS G12C-BRAF complex at the cellular level, we established the NanoBit cellular assay in mammalian HEK293 (ATCC) cells.
HEK293 cells were grown and maintained using DMEM medium (Thermo Fisher Scientific) with 10% fetal bovine serum and 1% penicillin/streptomycin. Both KRAS G12C and BRAF RBD were cloned into the NanoBit vectors ([…] vectors system, Promega) with the orientations SnmBit-KRAS G12C and BRAF RBD-LgBit, respectively, and co-transfected into HEK293 cells. Cells were then selected with 100 μg/mL Hygromycin B (10687010, Thermo Fisher) and Blasticidin (5 μg/mL) for 4 weeks to get the stable cell pool.
On the day of the assay, 75 nL of compound solution was presented in a 384-well assay plate as a 16-point 3-fold dilution starting from a final concentration of 30 μM in DMSO. Then cells were seeded at 10,000 cells/25 μL/well in a 384-well plate. After 3 hours of incubation, 6 μL of volume of Nano-Glo® Live Cell Substrate (Promega) was added into each well. Monitor luminescence using ultra384 model in Envision at 20 minutes. Compounds that facilitate disruption of the KRAS G12C-BRAF RBD complex were identified as those eliciting a decrease of luminescence relative to DMSO control wells.

In data set [6] the target is T1, KRAS G12C-BRAF complex. The experiment in a line: KRAS-BRAF with CYPA (500 nM) interaction assay (TR-FRET), G12C. In kind it is biochemical. Background: In TR-FRET formats the signal depends on donor and acceptor labels being close together.
In data set [7] the target is KRAS G12D binding to BRAF (Homo sapiens (Human), UniProt P01116+P62937, G12D). The experiment in a line: KRAS-BRAF with CYPA (500 nM) interaction assay (TR-FRET), G12D. The class given is biochemical.
Sequence of KRAS G12D binding to BRAF (P01116-2 other isoform, or with tags, fused parts or gaps G12D): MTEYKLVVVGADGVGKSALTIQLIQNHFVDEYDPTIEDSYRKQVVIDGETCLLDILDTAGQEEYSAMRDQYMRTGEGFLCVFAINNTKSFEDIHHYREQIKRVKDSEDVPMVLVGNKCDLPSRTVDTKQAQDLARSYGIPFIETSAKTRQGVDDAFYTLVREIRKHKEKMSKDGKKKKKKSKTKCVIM
Sequence of KRAS G12D binding to BRAF (P62937 whole entry): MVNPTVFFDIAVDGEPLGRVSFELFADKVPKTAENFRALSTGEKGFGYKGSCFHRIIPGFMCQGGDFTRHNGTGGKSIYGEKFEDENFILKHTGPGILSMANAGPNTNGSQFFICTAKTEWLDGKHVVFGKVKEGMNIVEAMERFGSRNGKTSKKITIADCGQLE
Data set [8] concerns the target KRAS G12V binding to BRAF (Homo sapiens (Human), UniProt P01116+P62937, G12V). Kind of data set: KRAS-BRAF with CYPA (500 nM) interaction assay (TR-FRET), G12V. In kind it is biochemical. A digest of the protocol:
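A TR-FRET assay measured how compound, in the presence of CYPA, disrupts binding of GMPPNP-loaded 6His-KRAS G12V to BRAF. The buffer contained 25 mM HEPES PH=7.4, 0.002% Tween20, 0.1% BSA, 100 mM NaCl, 5 mM MgCl2 and 10 μM GMPPNP. Compounds ran as a 16-point 3-fold dilution series from 10 μM for 3 hours.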

Data set [9] has as its system phosphorylation of ERK, KRAS G12C in NCJ-H358 cells. The experiment in a line: pERK inhibition assay, KRAS G12C. To be noted: Homo sapiens, 4 hours. In kind it is cell-based, human. A digest of the protocol:
(§2)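 Cells in RPMI-1640 with 10% FBS were plated overnight (NCJ-H358 30,000, AGS 20,000, SW620 30,000 cells/well), then exposed to compounds in 0.5% DMSO for 4 h. Fixed, methanol-permeabilized cells were probed for pERK by HRP-based in-cell ELISA with TMB, OD450; IC50 from 4-parameter sigmoidal fit.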

For data set [10], the system named is phosphorylation of ERK, KRAS G12D in AGS cells. Kind of data set: pERK inhibition assay, KRAS G12D. The class given is cell-based, human. To be noted: Homo sapiens, 4 hours. Summed up:
as §2

The test system of data set [11] is phosphorylation of ERK, KRAS G12V in SW620. Kind of data set: pERK inhibition assay, KRAS G12V. In kind it is cell-based, human. To be noted: Homo sapiens, SW-620, SW620, 4 hours. Summed up: as §2

T1 sequence (P01116-2 other isoform, or with tags, fused parts or gaps G12C): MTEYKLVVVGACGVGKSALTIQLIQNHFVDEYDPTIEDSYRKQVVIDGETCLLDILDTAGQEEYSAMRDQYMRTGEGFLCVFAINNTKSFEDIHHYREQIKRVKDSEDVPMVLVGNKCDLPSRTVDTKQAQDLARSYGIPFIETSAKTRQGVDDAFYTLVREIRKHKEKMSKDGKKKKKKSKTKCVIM
T1 sequence (P62937 whole entry): as the sequence (P62937 whole entry) above
Sequence of KRAS G12V binding to BRAF (P01116-2 other isoform, or with tags, fused parts or gaps G12V): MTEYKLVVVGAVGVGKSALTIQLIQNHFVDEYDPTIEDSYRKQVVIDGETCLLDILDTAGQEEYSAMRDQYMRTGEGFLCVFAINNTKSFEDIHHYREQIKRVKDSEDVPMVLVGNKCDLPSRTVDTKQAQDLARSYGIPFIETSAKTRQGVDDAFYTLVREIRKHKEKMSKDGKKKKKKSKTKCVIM
Sequence of KRAS G12V binding to BRAF (P62937 whole entry): as the sequence (P62937 whole entry) above

`CO[C@@H](C)c1ncc(N2CCN(C(=O)OCc3ccccc3)CC2)cc1-c1c2c3cc(c(F)cc3n1CC(F)(F)F)-c1csc(n1)C[C@H](NC(=O)OC(C)(C)C)C(=O)N1CCC[C@H](N1)C(=O)OCC(C)(C)C2`: the ring closure, yield of all isomers in data set [1] (from CO[C@@H](C)c1ncc(N2CCN(C(=O)OCc3ccccc3)CC2)cc1-c1c(CC(C)(C)CO)c2cc(-c3csc(C[C@H](NC(=O)OC(C)(C)C)C(=O)N4CCC[C@@H](C(=O)O)N4)n3)c(F)cc2n1CC(F)(F)F, 9.63 mM, 15.0 °C, 12.0 h) turned out to be 73.4%.
In turn, `CCn1c(-c2cc(N3CCOCC3)cnc2[C@H](C)OC)c2c3cc(c(F)cc31)-c1csc(n1)C[C@H](NC(=O)OC(C)(C)C)C(=O)N1CCC[C@H](N1)C(=O)OCC(C)(C)C2` showed a ring closure, yield of all isomers in data set [1] (from CCn1c(-c2cc(N3CCOCC3)cnc2[C@H](C)OC)c(CC(C)(C)CO)c2cc(-c3csc(C[C@H](NC(=O)OC(C)(C)C)C(=O)N4CCC[C@@H](C(=O)O)N4)n3)c(F)cc21, 11.72 mM, 20.0 °C, 12.0 h) of 49.1%.
`CO[C@@H](C)c1ncc(N2CCN(C(=O)OCc3ccccc3)CC2)cc1-c1c2c3cc(c(F)cc3n1CC(F)(F)F)-c1cc(cc(O[Si](C(C)C)(C(C)C)C(C)C)c1)C[C@H](NC(=O)OC(C)(C)C)C(=O)N1CCC[C@H](N1)C(=O)OCC(C)(C)C2` gave a ring closure, yield of all isomers in data set [1] (from CO[C@@H](C)c1ncc(N2CCN(C(=O)OCc3ccccc3)CC2)cc1-c1c(CC(C)(C)CO)c2cc(-c3cc(C[C@H](NC(=O)OC(C)(C)C)C(=O)N4CCC[C@@H](C(=O)O)N4)cc(O[Si](C(C)C)(C(C)C)C(C)C)c3)c(F)cc2n1CC(F)(F)F, 8.33 mM, 15.0 °C, 12.0 h) of 74.2%.
As for `CO[C@@H](C)c1ncc(N2CCN(C)CC2)cc1-c1c2c3cc(c(F)cc3n1CC(F)(F)F)-c1csc(n1)C[C@H](NC(=O)[C@H](C(C)C)N1CCC3(CCN(C(=O)[C@H](F)Cl)CC3)C1=O)C(=O)N1CCC[C@H](N1)C(=O)OCC(C)(C)C2` (atropisomer, axis not shown; (M)) [Example 15, (2S)-2-[8-[(2R)-2-chloro-2-fluoro-acetyl]-1-oxo-2,8-diazaspiro[4.5]decan-2-yl]-N-[(7S,13S)-24-fluoro-(20M)-20-[2-[(1S)-1-methoxyethyl]-5-(4-methylpiperazin-1-yl)-3-pyridyl]-17,17-dimethyl-8,14-dioxo-21-(2,2,2-trifluoroethyl)-15-oxa-4-thia-9,21,27,28-tetrazapentacyclo[17.5.2.1^2,5.1^9,13.0^22,26]octacosa-1(25),2,5(28),19,22(26),23-hexaen-7-yl]-3-methyl-butanamide], the “Clearance Category” value in data set [2] is given as “medium (16.24>CL_hep (mL/min/kg)>6.96 is medium clearance)”. For the same compound, the “CL_hep (Human)” value in data set [2] was 10.9 mL/min/kg. For the same compound, the pIC50 is more than 9.00 in data set [3], 5.49 in data set [4], 6.11 with SW620 (ATCC-CCL-227) and 7.49 on KRAS G12C-BRAF complex [5].
As to `CC(C)[C@@H](C(=O)N[C@H]1Cc2cc(O)cc(c2)-c2ccc3c(C(C)(C)C#N)cn(c3c2)CC(C)(C)COC(=O)[C@@H]2CCCN(N2)C1=O)N1CCC2(CN(C(=O)[C@H](F)Cl)C2)C1=O` [RM44-A, reference compound], the “Clearance Category” value in data set [2] is recorded as “low (CL_hep (mL/min/kg)<6.96 is low clearance)”. In addition, the “CL_hep (Human)” value in data set [2] is reported as less than 2.4 mL/min/kg. The pIC50 is 5.94 at KRAS G12C-BRAF complex [5]; 6.11 at KRAS G12C-BRAF complex [6]; less than 5.00 in data set [7]; less than 5.00 in data set [8]; less than 5.00 in data set [9]; less than 5.00 in data set [10]. The compound further showed a pIC50 in [11] of less than 5.00.
Consider `CO[C@@H](C)c1ncc(N2CCN(C)CC2)cc1-c1c2c3cc(c(F)cc3n1CC(F)(F)F)-c1csc(n1)C[C@H](NC(=O)[C@H](C(C)C)N1CC[C@@]3(CCN(C(=O)[C@H](F)Cl)C3)C1=O)C(=O)N1CCC[C@H](N1)C(=O)OCC(C)(C)C2` (atropisomer, axis not shown; (M)) [Example 4, (2S)-2-[(5R)-7-[(2R)-2-chloro-2-fluoro-acetyl]-1-oxo-2,7-diazaspiro[4.4]nonan-2-yl]-N-[(7S,13S)-24-fluoro-(20M)-20-[2-[(1S)-1-methoxyethyl]-5-(4-methylpiperazin-1-yl)-3-pyridyl]-17,17-dimethyl-8,14-dioxo-21-(2,2,2-trifluoroethyl)-15-oxa-4-thia-9,21,27,28-tetrazapentacyclo[17.5.2.1^2,5.1^9,13.0^22,26]octacosa-1(25),2,5(28),19,22(26),23-hexaen-7-yl]-3-methyl-butanamide], for which, in [2], the “Clearance Category” value was “low (CL_hep (mL/min/kg)<6.96 is low clearance)”. For the same compound, the “CL_hep (Human)” value in [2] is reported as 6.4 mL/min/kg. Further, the pIC50 in data set [3] is 8.70; in data set [4] it was 5.89; in the data set on SW620 (ATCC-CCL-227), 6.20; against KRAS G12C-BRAF complex [6] it was 6.91; in data set [7] it was 5.36; in data set [8], less than 5.00. Further, the values for the pIC50 in data set [9], in [10] and in data set [11] were 8.70, 6.96 and 7.32, respectively.
In turn, `CO[C@@H](C)c1ncc(N2CCOCC2)cc1-c1c2c3cc(c(F)cc3n1CC(F)(F)F)-c1csc(n1)C[C@H](NC(=O)OC(C)(C)C)C(=O)N1CCC[C@H](N1)C(=O)OCC(C)(C)C2` came in with a ring closure, yield of all isomers in data set [1] (from CO[C@@H](C)c1ncc(N2CCOCC2)cc1-c1c(CC(C)(C)CO)c2cc(-c3csc(C[C@H](NC(=O)OC(C)(C)C)C(=O)N4CCC[C@@H](C(=O)O)N4)n3)c(F)cc2n1CC(F)(F)F, 12.0 mM, 20.0 °C, 15.0 h) of 81.3%.
